Laboratory results from patent US20190053489A1, “ANTIMICROBIAL COMPOSITION” (NATIONAL UNIVERSITY CORPORATION TOKYO MEDICAL AND DENTAL …, priority 2016, published 2019).

Assays:
MRSA IID 1677 [1] = assay: Proliferation suppression against MRSA in a standard medium (colony count method); type: cell-based, Methicillin-Resistant Staphylococcus Aureus (MRSA)
Protocol: This test employed MRSA IID 1677, and this microbe strain was inoculated in 20 ml of a normal broth medium (manufactured by Eiken Chemical Co., Ltd., ‘Eiken’) for overnight shake culture at 37° C. The cultured microbial solution was collected by centrifugation (3000 rpm, 10 minutes), suspended with sterilized water, and then diluted with sterilized water so that the optical density would satisfy OD600=1.0. The resultant was diluted 2000 times (corresponding to 10^6 CFU/ml) to prepare a reaction microbial solution.
Here, the TSB test medium samples were prepared using 10 ml of TSB medium (BD BBL™) added with 200 μl of 1 M phosphate buffer (pH 7.0), followed by further addition of
(1) 10 ml of sterilized water, ([…]), (3) 10 ml of lysozyme alone with a concentration of 0.2% (the concentration after addition was 0.1%), (4) 10 ml of chitosan alone with a concentration of 0.2% (the concentration after addition was 0.1%), and (5) 10 ml of the mixture of lysozyme and chitosan with a concentration of 0.2% (the concentration of each after addition was 0.1%).
After that, 100 μl was extracted and seeded on the MH agar medium, and the number of colonies produced was observed (colony count method). […] Note that the results of FIG. 7 are each the average value of the values obtained by carrying out the colony count method three times.
Note that the results of FIG. 8 are each the average value obtained with two replicate samples.

[2] = system: Mycobacterium avium Chester JCM15429; assay: Proliferation suppression against pulmonary MAC in a diluted medium (OD600); type: cell-based
Protocol: This test employed Mycobacterium avium Chester JCM15429, and this microbe strain was cultured in a Middlebrook 7H9 medium at 37° C. for 2 weeks. The cultured microbial solution was collected by centrifugation (3000 rpm, 10 minutes), suspended with sterilized water, and then diluted with sterilized water so that the optical density would satisfy OD600 =1.0. The resultant was diluted 2000 times (corresponding to 10^6 CFU/ml) to prepare a reaction microbial solution.
Each of the Middlebrook 7H9 test medium samples was added with 100 μl of reaction microbial solution and was statically cultured under the condition of 37° C. Here, the Middlebrook 7H9 test medium samples were prepared using 10 ml of 1/2.5 Middlebrook 7H9 medium added with
(1) 10 ml of sterilized water, (2) 10 ml of the lysozyme-chitosan complex with a concentration of 0.002% (the concentration after addition was […]), (3) 10 ml of the lysozyme-chitosan complex with a concentration of 0.02% (the concentration after addition was 0.01%), (4) 10 ml of the lysozyme-chitosan complex with a concentration of 0.2% (the concentration after addition was 0.1%), (5) 10 ml of lysozyme alone with a concentration of 0.1% (the concentration after addition was 0.05%), (6) 10 ml of chitosan alone with a concentration of 0.1% (the concentration after addition was 0.05%), and (7) 10 ml of the mixture of lysozyme and chitosan with a concentration of 0.1% (the concentration of each after addition was 0.05%).
After that, 3 ml was extracted at time intervals (0, 5, 7, and 12 days), and the optical density was measured at an absorption wavelength of 600 nm. In addition, 100 μl was extracted when necessary and seeded on the Middlebrook 7H10 agar medium, and the number of colonies produced was observed.

MRSA = assay: Observation of morphological change in MRSA by electron microscope; type: cell-based, Methicillin-Resistant Staphylococcus Aureus (MRSA)
Protocol: First, the morphological change in MRSA was observed by using a scanning electron microscope. This observation with a scanning electron microscope was carried out as follows: osmium coating (4 nm) was performed as the conductive treatment, and a low-acceleration ultra-high resolution scanning electron microscope (SU 9000 manufactured by Hitachi High-Technologies Corporation (accelerating voltage: 1 kV)) was used. In addition, the samples were MRSA added with physiological saline and MRSA added with a lysozyme-chitosan complex with a concentration of 0.2% by mass.
(§1) Next, the morphological change in MRSA was observed by using a transmission electron microscope. This observation with a transmission electron microscope was carried out as follows: the sample was sliced in 50 nm with a diamond knife as the pretreatment and was stained with uranium acetate and lead citrate, and a transmission electron microscope (JEM-1400 manufactured by JEOL Ltd.) was used. In addition, the samples were MRSA added with physiological saline and MRSA added with a lysozyme-chitosan complex with a concentration of 0.2% by mass.
(§2) Observation was carried out with a scanning electron microscope for the morphological changes in MRSA and pseudomonas aeruginosa treated with the lysozyme-chitosan complex, lysozyme alone, chitosan alone, and the mixture of lysozyme and chitosan (treatment time: 2 hours). This observation with a scanning electron microscope was carried out in the same manner as Example 8 described above: osmium coating (4 nm) was performed as the conductive treatment, and a low-acceleration ultra-high resolution scanning electron microscope (SU 9000 manufactured by Hitachi High-Technologies Corporation (accelerating voltage: 1 kV)) was used. In addition, the samples were MRSA or pseudomonas aeruginosa added with physiological saline, a lysozyme-chitosan complex with a concentration of 0.1% by mass, lysozyme of 0.05% by mass, chitosan of 0.05% by mass, and a mixture of lysozyme and chitosan, each with 0.05% by mass.

[3] = system: Pseudomonas aeruginosa NBRC 13275; assay: Proliferation suppression against pseudomonas aeruginosa NBRC 13275 in a standard medium (colony count method); type: cell-based; details: standard TSB medium; for ratio of the number of pseudomonas aeruginosa (NBRC 13275) colonies produced to the control: 6 hours later, FIG. 11
Source text: This test employed Pseudomonas aeruginosa NBRC 13275 or PAO 1, and other procedures were the same as those of [Example 5] described earlier.
Note that the results of FIG. 9 are each the average value of the values obtained by carrying out the colony count method three times and that the results of FIG. 10 are each the average value of the values obtained by carrying out the colony count method five times.
Note that the results of FIG. 11 are each the average value obtained with three replicate samples.

MRSA IID 1677 [4] = assay: MRSA-resistant microbe acquisition protocol (microdilution method); type: cell-based, Methicillin-Resistant Staphylococcus Aureus (MRSA); details: subculture 25 generations; FIG. 12
Protocol: This test employed MRSA IID 1677, and a resistant microbe acquisition protocol was carried out by use of the microdilution method proposed by Japanese Society of Chemotherapy.

pseudomonas aeruginosa = assay: Observation of morphological change in pseudomonas aeruginosa by electron microscope; type: cell-based
Protocol: as §1
Note that the morphological change in the case of adding the lysozyme-chitosan complex to pseudomonas aeruginosa was also observed using a transmission electron microscope in the same manner as above. […] In other words, the lysozyme-chitosan complex also has a resistant microbe inactivation effect for pseudomonas aeruginosa.
as §2

lysozyme-chitosan complex: complex of lysozyme and water-soluble chitosan (molecular weight 14000 Da) bound to each other through the Maillard reaction
proliferation suppression effect against MRSA (ratio of colonies produced 6 hours later to control) (MRSA IID 1677 [1]; standard TSB medium with phosphate buffer pH 7.0, complex 0.2%, lysozyme, chitosan, each of mixture 0.1%, FIG. 7): marked improvement effect compared to chitosan alone and the mixture of lysozyme and chitosan
proliferation suppression effect against MRSA 9 hours later (MRSA IID 1677 [1]; standard TSB medium, any of the complex concentrations 0.01%, 0.05%, 0.1%, 0.2%, FIG. 8): sufficient proliferation suppression effect
ratio of the number of MRSA colonies produced to the control (MRSA IID 1677 [1]; standard TSB medium, complex 0.2%, past 6 hours, FIG. 8): ~0%
proliferation suppression effect against pulmonary MAC over 7 days, medium with phosphate buffer ([2]; Middlebrook 7H9 test medium further added with 10 mM phosphate buffer (pH 7.0), FIG. 5): marked proliferation suppression effect
proliferation suppression effect against pulmonary MAC, classified by concentration ([2]; diluted Middlebrook 7H9 medium, complex 0.0010, 0.01%, 0.1% after addition, FIG. 3): increased as the concentration of the lysozyme-chitosan complex increased
proliferation suppression effect against pulmonary MAC over 7 days ([2]; diluted Middlebrook 7H9 medium, complex 0.1% vs lysozyme, chitosan, mixture 0.05% each, FIG. 4): marked proliferation suppression effect
morphological change in MRSA, scanning electron microscope, treatment time 2 hours (MRSA; complex 0.1% by mass, lysozyme 0.05%, chitosan 0.05%, mixture each 0.05%, FIG. 16): the form of MRSA has changed
morphological change in MRSA, scanning electron microscope (MRSA; complex 0.2% by mass, FIG. 13): fibrous adhesions have appeared on the outer surface of MRSA
morphological change in MRSA, transmission electron microscope (MRSA; complex 0.2% by mass, FIG. 14): fibrous structures (DNA) inside MRSA have disappeared
proliferation suppression effect against NBRC 13275 ([3]; colony count 6 hours later, complex 0.2%, others 0.1%, FIG. 9): marked improvement effect compared to lysozyme alone, chitosan alone, and the mixture of lysozyme and chitosan
ratio of the number of pseudomonas aeruginosa (NBRC 13275) colonies produced to the control ([3]; complex 0.2%): ~0%
ratio of the number of pseudomonas aeruginosa (NBRC 13275) colonies produced to the control ([3]; complex 0.5%): ~0%
change of MIC (minimum inhibitory concentration) on subculture (MRSA IID 1677 [4]): hardly changed
morphological change in pseudomonas aeruginosa, transmission electron microscope (pseudomonas aeruginosa; FIG. 15): destroys the cell walls of pseudomonas aeruginosa
morphological change in pseudomonas aeruginosa, scanning electron microscope, treatment time 2 hours (pseudomonas aeruginosa; complex 0.1% by mass, lysozyme 0.05%, chitosan 0.05%, mixture each 0.05%, FIG. 17): changed to a large extent
